Consider 28 compounds from patent US8569267B2, “Tetracyclic tetrahydrofuran derivatives containing cyclic amine side chain” (Janssen Pharmaceutica, NV, priority 2005, dated 2013).

The target in experiment [1] is T1, human cloned 5-HT2A receptor, expressed in L929 cells (Homo sapiens, UniProt P28223).
T1 construct: expressed in transfected cells; host or cells: L929 cells
Briefly: In vitro binding affinity for 5-HT2A receptor ([125I]R91150 radioligand binding). Conditions: human cloned 5-HT2A receptor in L929 cells, [125I]R91150; for IC50: read-out: 5-HT2A pIC50 (converted). In a few lines: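 Competition radioligand binding to human cloned 5-HT2A receptor expressed in L929 cells, using [125I]R91150 with test compound at various concentrations. At equilibrium, receptor-bound radioactivity was separated from free and counted. Affinity reflects inhibition of radioligand binding.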

Experiment [2] addresses T2, NET (norepinephrine transporter) (Rattus norvegicus, UniProt Q63380).
T2 construct: Cortex from rat brain was collected and homogenised; from tissue; host or cells: rat brain cortex
Briefly: In vitro determination of NET reuptake inhibition ([3H]Nixosetine binding, rat brain cortex). Conditions: rat brain cortex; for IC50: read-out: NET pIC50 (converted). In a few lines:
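Rat cortex homogenised in Tris 50 mM, NaCl 120 mM, KCl 5 mM, pH 7.4 was used for competition binding against [3H]nisoxetine. Bound radioligand was collected by filtration on GF/B filters and counted by scintillation. Percentage specific binding and competition curves were derived.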

Experiment [3] addresses T3, human Dopamine D2L receptor (Homo sapiens, UniProt P14416).
T3 construct: expressed in transfected cells; host or cells: CHO cells
Briefly: In vitro binding affinity for human D2L receptor ([3H]Spiperone binding). Conditions: human D2L receptor-transfected CHO cell membranes; for IC50: read-out: D2L pIC50 (converted). The gist of the method: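 Membranes from CHO cells transfected with the receptor were incubated with [3H]Spiperone (diluted to 2 nmol/L before addition) and compound for 30 min at 37° C. Buffer was Tris-HCl, pH 7.7, with NaCl, CaCl2, MgCl2 and KCl, and non-specific binding was defined with 10^−6 mol/l Butaclamol. Bound radioactivity was collected by filtration, counted by scintillation, and competition curves calculated as percent specific binding.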

Experiment [4] has as its target T4, human cloned 5-HT2C receptor, expressed in CHO cells (Homo sapiens, UniProt P28335).
T4 construct: expressed in transfected cells; host or cells: CHO cells
T4 sequence (P28335 33-458): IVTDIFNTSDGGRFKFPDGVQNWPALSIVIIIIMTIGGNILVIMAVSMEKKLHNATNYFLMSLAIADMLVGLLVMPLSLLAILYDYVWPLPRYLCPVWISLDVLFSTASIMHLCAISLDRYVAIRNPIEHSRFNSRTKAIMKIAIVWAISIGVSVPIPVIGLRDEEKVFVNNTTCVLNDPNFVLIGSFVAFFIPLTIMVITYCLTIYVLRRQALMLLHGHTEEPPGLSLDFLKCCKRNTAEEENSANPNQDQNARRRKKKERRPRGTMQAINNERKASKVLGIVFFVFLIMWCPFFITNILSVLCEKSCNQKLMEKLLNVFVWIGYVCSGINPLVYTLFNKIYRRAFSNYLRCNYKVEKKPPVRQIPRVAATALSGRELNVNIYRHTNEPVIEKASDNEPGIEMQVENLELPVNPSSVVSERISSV
Briefly: In vitro binding affinity for 5-HT2C receptor ([3H]mesulergine radioligand binding). The note with it: human cloned 5-HT2C receptor; for IC50: read-out: 5-HT2C pIC50 (converted). The gist of the method: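 Competition radioligand binding: varying test-compound concentrations incubated with receptor preparation and radioligand to binding equilibrium. Bound radioactivity separated from free and counted; affinity inferred from concentration-dependent inhibition of radioligand binding.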

Structures are written as SMILES.

T1 sequence (P28223 whole entry): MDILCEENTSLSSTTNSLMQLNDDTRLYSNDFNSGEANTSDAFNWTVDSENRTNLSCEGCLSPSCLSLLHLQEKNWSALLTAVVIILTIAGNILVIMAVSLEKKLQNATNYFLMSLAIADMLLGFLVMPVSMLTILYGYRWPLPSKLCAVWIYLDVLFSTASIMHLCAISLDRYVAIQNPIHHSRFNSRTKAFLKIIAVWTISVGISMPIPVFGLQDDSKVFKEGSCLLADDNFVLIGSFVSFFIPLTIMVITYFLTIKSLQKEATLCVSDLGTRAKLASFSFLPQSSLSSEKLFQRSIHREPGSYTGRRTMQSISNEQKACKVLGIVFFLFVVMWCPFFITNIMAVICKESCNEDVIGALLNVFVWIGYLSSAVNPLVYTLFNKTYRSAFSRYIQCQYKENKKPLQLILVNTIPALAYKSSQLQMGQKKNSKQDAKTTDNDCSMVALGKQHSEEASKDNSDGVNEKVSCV
T3 sequence (P14416 whole entry): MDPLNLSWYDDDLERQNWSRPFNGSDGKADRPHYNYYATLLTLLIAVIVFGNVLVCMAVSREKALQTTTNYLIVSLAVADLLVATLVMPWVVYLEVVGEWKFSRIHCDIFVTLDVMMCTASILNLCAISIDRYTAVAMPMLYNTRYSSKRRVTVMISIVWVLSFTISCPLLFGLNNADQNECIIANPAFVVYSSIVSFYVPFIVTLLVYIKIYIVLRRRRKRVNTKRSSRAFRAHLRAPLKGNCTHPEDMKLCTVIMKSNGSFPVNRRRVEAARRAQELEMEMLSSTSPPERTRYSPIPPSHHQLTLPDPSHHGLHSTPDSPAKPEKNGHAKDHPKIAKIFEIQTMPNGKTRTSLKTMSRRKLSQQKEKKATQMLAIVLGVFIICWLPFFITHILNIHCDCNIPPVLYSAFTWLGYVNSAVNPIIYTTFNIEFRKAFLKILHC
T2 sequence (Q63380 1-617): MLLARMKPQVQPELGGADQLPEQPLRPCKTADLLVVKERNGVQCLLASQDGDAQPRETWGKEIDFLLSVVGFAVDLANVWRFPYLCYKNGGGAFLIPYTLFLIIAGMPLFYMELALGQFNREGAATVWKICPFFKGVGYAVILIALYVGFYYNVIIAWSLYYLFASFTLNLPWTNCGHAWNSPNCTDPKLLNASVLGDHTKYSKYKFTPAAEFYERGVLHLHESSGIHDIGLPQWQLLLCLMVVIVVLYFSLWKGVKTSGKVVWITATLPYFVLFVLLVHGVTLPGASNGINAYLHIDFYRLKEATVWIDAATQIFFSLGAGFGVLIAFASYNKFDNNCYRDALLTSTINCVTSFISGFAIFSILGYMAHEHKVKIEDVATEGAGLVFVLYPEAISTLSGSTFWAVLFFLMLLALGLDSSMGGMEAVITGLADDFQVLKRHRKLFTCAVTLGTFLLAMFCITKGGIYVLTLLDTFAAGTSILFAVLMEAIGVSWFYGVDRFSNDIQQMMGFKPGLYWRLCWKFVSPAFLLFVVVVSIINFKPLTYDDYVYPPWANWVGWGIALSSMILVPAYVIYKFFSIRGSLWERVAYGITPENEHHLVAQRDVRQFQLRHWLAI

As to `OC(COc1ccc(Cl)cc1)CN1CCN(C[C@H]2C[C@@H]3c4ccccc4Cc4ccc(F)cc4[C@@H]3O2)CC1` (stereo partly shown) [Compound 56], the IC50 is 6.03 nM in experiment [1], 5620 nM in experiment [2], 26.3 nM in experiment [3] and 10.2 nM in experiment [4].

Turning to `Fc1ccc2c(c1)C1OC(CN3CCN(Cc4cccs4)CC3)CC1c1ccccc1C2` (stereo not shown) [Compound 58], the IC50 is 11 nM in experiment [1], 977 nM in experiment [2], 7.41 nM in experiment [3] and 25.7 nM in experiment [4].

As to `Fc1ccc2c(c1)C1OC(CN3CCN(Cc4ccsc4)CC3)CC1c1ccccc1C2` (stereo not shown) [Compound 59], the IC50 in experiment [1] was 14.8 nM; in experiment [2] it was 1260 nM; in experiment [3] it was 6.92 nM; in experiment [4] it was 49 nM.

Turning to `Fc1ccc2c(c1)C1OC(CN3CCN(Cc4ccco4)CC3)CC1c1ccccc1C2` (stereo not shown) [Compound 60], the IC50 in experiment [1] was 7.76 nM; in experiment [2], 1550 nM; in experiment [3] it was 6.31 nM; in experiment [4], 25.1 nM.

Regarding `Fc1ccc2c(c1)C1OC(CN3CCN(Cc4ccoc4)CC3)CC1c1ccccc1C2.O=C(O)C(F)(F)F` (stereo not drawn) [Compound 61, [2R-(2α, 3aα, 12bβ)]1-(11-fluoro-3,3a,8,12b-tetrahydro-2H-1-oxa-dibenzo[e,h]-azulen-2-ylmethyl)-4-furan-3-ylmethyl-piperazine.trifluoroacetate (1:1)], the “5-HT2A pIC50” value in experiment [1] is on record as 8.03. In addition, the “NET pIC50” value in experiment [2] is recorded as 5.88. Also, the “D2L pIC50” value in experiment [3] is on record as 8.09. The “5-HT2C pIC50” value in experiment [4] worked out at 7.66.

In the case of `Fc1ccc2c(c1)C1OC(CN3CCN(Cc4ccc(-c5ccc(Cl)cc5)o4)CC3)CC1c1ccccc1C2` (stereo not shown) [Compound 62], the IC50 is 47.9 nM in experiment [1], 3470 nM in experiment [2], 75.9 nM in experiment [3] and 107 nM in experiment [4].

For the compound `O=[N+]([O-])c1ccc(-c2ccc(CN3CCN(CC4CC5c6ccccc6Cc6ccc(F)cc6C5O4)CC3)o2)cc1` (stereo not shown) [Compound 63], the IC50 was 27.5 nM in experiment [1], 562 nM in experiment [2], 74.1 nM in experiment [3] and 50.1 nM in experiment [4].

On to `Fc1ccc2c(c1)C1OC(CN3CCN(Cc4cc5ccccc5o4)CC3)CC1c1ccccc1C2` (stereo not shown) [Compound 64], for which the IC50 in experiment [1] was 26.3 nM; in experiment [2], 2690 nM; in experiment [3], 15.5 nM; in experiment [4], 28.8 nM.

For `Fc1ccc2c(c1)C1OC(CN3CCN(Cc4cnc[nH]4)CC3)CC1c1ccccc1C2` (stereo not shown) [Compound 66], the IC50 in experiment [1] was 7.41 nM; in experiment [2], 4370 nM; in experiment [3], 13.8 nM; in experiment [4] it was 37.2 nM.

In the case of `Fc1ccc2c(c1)C1OC(CN3CCN(Cc4cnc(-c5ccccc5)[nH]4)CC3)CC1c1ccccc1C2` (stereo not shown) [Compound 67], the IC50 in experiment [1] was 3.16 nM; in experiment [2], 4900 nM; in experiment [3], 8.51 nM; in experiment [4], 4.27 nM.

In the case of `O=S(=O)(c1ccccc1)n1cccc1CN1CCN(CC2CC3c4ccccc4Cc4ccc(F)cc4C3O2)CC1` (stereo not shown) [Compound 68], the IC50 in experiment [1] was 67.6 nM; in experiment [2], 2400 nM; in experiment [3], 91.2 nM; in experiment [4], 117 nM.

In the case of `Fc1ccc2c(c1)[C@@H]1O[C@@H](CN3CCN(CC4CCCCC4)CC3)C[C@@H]1c1ccccc1C2` [Compound 69], the IC50 in experiment [1] was 41.7 nM; in experiment [2], above 10000 nM; in experiment [3], 7.24 nM; in experiment [4], 79.4 nM.

Regarding `N#Cc1cccc(CN2CCN(CC3CC4c5ccccc5Cc5ccc(F)cc5C4O3)CC2)c1` (stereo not shown) [Compound 70], the IC50 was 7.24 nM in experiment [1], 708 nM in experiment [2], 20.4 nM in experiment [3] and 15.8 nM in experiment [4].

Turning to `COC(=O)c1ccc(CN2CCN(CC3CC4c5ccccc5Cc5ccc(F)cc5C4O3)CC2)cc1` (stereo not shown) [Compound 72], the IC50 is 30.9 nM in experiment [1], 1170 nM in experiment [2], 26.9 nM in experiment [3] and 60.3 nM in experiment [4].

Take `O=[N+]([O-])c1ccc(CN2CCN(CC3CC4c5ccccc5Cc5ccc(F)cc5C4O3)CC2)cc1` (stereo not shown) [Compound 73]: the IC50 in experiment [1] is 20.4 nM; in experiment [2], 3630 nM; in experiment [3] it was 18.6 nM; in experiment [4], 46.8 nM.

Take `Fc1ccc2c(c1)C1OC(CN3CCN(Cc4ccc5ccccc5c4)CC3)CC1c1ccccc1C2` (stereo not shown) [Compound 74]: the IC50 in experiment [1] was 126 nM; in experiment [2], 3160 nM; in experiment [3], 30.9 nM; in experiment [4] it was 162 nM.

Regarding `Fc1ccc2c(c1)C1OC(CN3CCN(Cc4cccc5ccccc45)CC3)CC1c1ccccc1C2` (stereo not shown) [Compound 75], the IC50 in experiment [1] is 17.4 nM; in experiment [2], 1620 nM; in experiment [3], 63.1 nM; in experiment [4] it was 97.7 nM.

Consider `Fc1ccc2c(c1)C1OC(CN3CCN(Cc4cccc(Oc5ccccc5)c4)CC3)CC1c1ccccc1C2` (stereo not shown) [Compound 76], for which the IC50 is 66.1 nM in experiment [1], 851 nM in experiment [2], 67.6 nM in experiment [3] and 102 nM in experiment [4].

For `COCC(=O)N1CCN(CC2CC3c4ccccc4Cc4ccc(F)cc4C3O2)CC1` (stereo not shown) [Compound 77], the IC50 was 3.09 nM in experiment [1], 3630 nM in experiment [2], 33.9 nM in experiment [3] and 13.2 nM in experiment [4].

As to `O=C(C1CC1)N1CCN(C[C@H]2C[C@@H]3c4ccccc4Cc4ccc(F)cc4[C@@H]3O2)CC1` [Compound 78, [2R-(2α, 3aα, 12bβ)]cyclopropyl-[4-(11-fluoro-3,3a, 8,12b-tetrahydro-2H-1-oxa-dibenzo[e,h]azulen-2-ylmethyl)-piperazin-1-yl]-methanone.oxalate (1:1)], the IC50 in experiment [1] was 2.24 nM; in experiment [2], above 10000 nM; in experiment [3] it was 36.3 nM; in experiment [4], 8.91 nM.

In the case of `O=C(C1CCCC1)N1CCN(CC2CC3c4ccccc4Cc4ccc(F)cc4C3O2)CC1` (stereo not shown) [Compound 79], the IC50 in experiment [1] was 4.79 nM; in experiment [2], above 10000 nM; in experiment [3], 44.7 nM; in experiment [4], 51.3 nM.

`O=C(c1cccs1)N1CCN(CC2CC3c4ccccc4Cc4ccc(F)cc4C3O2)CC1` (stereo not shown) [Compound 81]: the IC50 in experiment [1] was 0.724 nM; in experiment [2], above 10000 nM; in experiment [3] it was 35.5 nM; in experiment [4], 5.01 nM.

Take `O=C(c1ccccc1)N1CCN(CC2CC3c4ccccc4Cc4ccc(F)cc4C3O2)CC1` (stereo not drawn) [Compound 82, [2R-(2α, 3aα, 12bβ)][4-(11-fluoro-3,3a,8,12b-tetrahydro-2H-1-oxa-dibenzo[e,h]-azulen-2-ylmethyl)-piperazin-1-yl]-phenyl-methanone.oxalate (1:1)]: the IC50 in experiment [1] is 2.14 nM; in experiment [2], above 10000 nM; in experiment [3], 19.5 nM; in experiment [4], 3.24 nM.

Consider `C=CCOC(=O)N1CCN(CC2CC3c4ccccc4Cc4ccc(F)cc4C3O2)CC1` (stereo not shown) [Compound 84], for which the IC50 was 8.13 nM in experiment [1], above 10000 nM in experiment [2], 25.7 nM in experiment [3] and 25.1 nM in experiment [4].

Take `CCNC(=O)N1CCN(C[C@H]2C[C@@H]3c4ccccc4Cc4ccc(F)cc4[C@@H]3O2)CC1` [Compound 86]: the IC50 in experiment [1] is 0.832 nM; in experiment [2], 7080 nM; in experiment [3] it was 55 nM; in experiment [4], 3.02 nM.

With `CSCCNC(=O)N1CCN(CC2CC3c4ccccc4Cc4ccc(F)cc4C3O2)CC1` (stereo not shown) [Compound 87], the IC50 is 1.26 nM in experiment [1], 5890 nM in experiment [2], 25.7 nM in experiment [3] and 3.09 nM in experiment [4].

As to `CC(C)NC(=O)N1CCN(CC2CC3c4ccccc4Cc4ccc(F)cc4C3O2)CC1` (stereo not shown) [Compound 88], the IC50 in experiment [1] is 0.38 nM; in experiment [2], 6460 nM; in experiment [3], 22.9 nM; in experiment [4], 5.5 nM.

For `CCCCNC(=O)N1CCN(CC2CC3c4ccccc4Cc4ccc(F)cc4C3O2)CC1` (stereo not shown) [Compound 89], the IC50 in experiment [1] is 2.82 nM; in experiment [2] it was above 10000 nM; in experiment [3] it was 38.9 nM; in experiment [4], 6.61 nM.
